Converted amounts (≈) assume the structure as drawn.
Tested on: M. tuberculosis (21 clinical and CDC strains, pan-sensitive and multidrug resistant)
Assay: microbe, parasite or virus in culture
Format: cell-based, Mycobacterium tuberculosis

Cc1ccc(C)c(OCCCC(C)(C)C(=O)O)c1 [GFZ, Gemfibrozil]
difference in sensitivity among the 21 strains: No greater than a two fold difference
MIC (Mycobacterium tuberculosis, 504 h, read-out: MIC (GFZ concentration at which no growth was seen)): 100 to 200 µg/mL (≈ 399 to 799 µM)
